Experimental findings from patent US20100062517A1, “In situ production of microbial pigments for metal and actinide immobilization” (priority 2008, published 2010) are described below.

One assay has as its system 4-HPPD. Kind of assay: Pigment production in pure cultures of soil isolates with sulcotrione. It is filed as cell-based, soil isolates (bacteria). As to conditions: sulcotrione 18 μM, LBSM with tyrosine 1 g/l, absorbance 400 nm, relative to no inhibitor. The text has this: Initial characterization of pigment included intensity of coloration and diffusion through agar media. Dark black non-diffusive pigments are indicative of DOPA melanin whereas reddish brown diffusive pigments are more likely pyomelanin. The chemical sulcotrione (Zeneca Agrochemicals) was used as a specific competitive inhibitor of 4-HPPD, the enzyme required for pyomelanin production. Methods incorporated sulcotrione to determine if pigment production was a result of 4-HPPD. Pure cultures of soil isolates were grown in LBSM and tyrosine (1 g/l) was supplemented to promote pigment production. Sulcotrione (18 μM) was added prior to pigmentation in order to differentiate pyomelanin production from other pigments that may be produced. Pigment production was quantified spectrophotometrically (400 nm) in cell free culture fluid. Controls for comparison were without tyrosine or without sulcotrione.

For another assay, the system named is Tims Branch soil. Nature of the assay: Field soil columns treated with tyrosine. Further details: species or system indigenous soil bacteria. How it is done:
Additionally, the following soil properties were analyzed: percent organic matter by loss-on-ignition at a temperature of 375° C. and pH was determined from a 1:1 mineral/water equilibration solution. Also, total concentration of U in a homogenized soil sample was determined by a total microwave digestion of 0.6 g of homogenized soil material with concentrated acids (10 ml of HNO3, 4 ml of H2SO4, and 2 ml of HCl). The resulting extract solution was analyzed by ICP-MS. Changes in the organic content of soils due to pyomelanin production were also determined by spectrophotometric absorbance (400 nm) of particle free supernatants and Fourier transform infrared (FTIR) spectroscopy. Soil samples were removed (5-10 g/column) 28 days after treatment addition for pore water analysis. Optical density was determined for centrifuged soil to determine the degree of pigmentation resulting from tyrosine amendments. Dried pigments from soil effluents (60° C.) were then further characterized using FTIR spectroscopy and compared to that of pure tyrosine and dihydroxyphenylalanine (DOPA) melanin (Aldrich Chemicals). […] All samples were analyzed using a ThermoElectron Smart Orbit diamond single bounce attenuated total reflectance accessory. […] During field incubation rainfall was measured at 12.1 cm. […] Samples were processed the next day and analyzed for metals and pH.

Consider `CS(=O)(=O)c1ccc(C(=O)C2C(=O)CCCC2=O)c(Cl)c1` [sulcotrione], for which the “Pigment production in bacterial cultures” value with 4-HPPD is given as “halted”.
On to `N[C@@H](Cc1ccc(O)cc1)C(=O)O` [tyrosine], for which the “U in pore water compared to controls” value in the assay on Tims Branch soil (30 days after treatment, 10, 30 and 50 cm depths) is “significantly decreased”. In addition, the “Duration of U immobilization” value in the assay with Tims Branch soil (one-time addition of tyrosine to soil) was “at least 13 months”.
